Results as given in patent publication US10017481B2, “Conformationally constrained, fully synthetic macrocyclic compounds” (POLYPHOR AG, priority 2012, dated 2018).
In brackets after ≈: the same amount, converted by molar mass. Where two headings read alike, the source gives them in different places.

What was measured:
[1] = molecular target: T1, human leukotriene B4 receptor (LTB4R) (Homo sapiens, UniProt Q15722); experiment: Human LTB4 receptor cell-based assay (CHO mito-i-Photina, flash luminescence); conditions: antagonist mode
T1 construct: host or cells: CHO mito-i-Photina cells
Description: 3. Human LTB4 Receptor Cell-Based Assay
CHO mito-i-Photina® cells (Axxam SpA) stably expressing the human leukotriene B4 receptor (LTB4R) were used for monitoring activation of the target LTB4R, a GPCR (Gαq), by measuring the flash luminescence of Ca^2+ sensitive photoprotein as reporter system with FLIPR^TETRA screening instrumentation (Molecular Devices) upgraded with an ICCD Camera (MDC). For data quality check and data analysis a Genedata Screener 10.0.3 was used, and for curve fitting of reference agonist and antagonist GraphPad Prism Software.
The reference agonist LTB4 and antagonist U-75302 were purchased from reputable commercial vendors and prepared according to each ligand's specifications. All handling of ligands were done to ensure proper control throughout the experiments.
The steps of the implemented workflow and data analysis are mainly as follows:
mito-1-Photina cells are seeded (10000 c/w in 384 MTP; in complete medium 25 μL/well) for 24 hours, removed from the incubator, equilibrated at room temperature for 1 h, freed from the growth medium, loaded with 30 μL/well of Tyrode's buffer containing 10 μM coelenterazine, and incubated for 3 hours at rt.
All compounds were tested at 10 μM with triplicate data points.
After incubation, the volume in all the wells is flattened to 20 μL by aspiration with CyBi®-Vario pipettor. The First Injection (10 μL of test compounds or reference antagonist U-75302 in Tyrode's buffer+DMSO 0.5%) is performed by the FLIPR^TETRA and the kinetic response is monitored over a period of 120 seconds. Incubation at rt for 10 min. is followed by the Second Injection (15 μL of LTB4 at EC80 in Tyrode's buffer) and monitoring of the kinetic response over a period of 120 seconds.
The possible kinetic response is divided into two distinct phases: Monitoring the kinetic response after the First Injection is indicated as Compound Addition (CA) and measures the agonistic activity of compounds; monitoring the kinetic response after the Second Injection is indicated as Target Activation (TA) and measures the antagonistic activity of a compound.
The activity determination (IC50 determination) experiment is performed using LTB4 as agonist (100 nM corresponding to EC80). Selected compound are tested in 8 doses intraplate dose response with quadruplicate data points.

[2] = molecular target: T2, Oxytocin receptor (OT receptor) (Homo sapiens, UniProt P30559); experiment: Ca2+ flux (FLIPR) assay, OT receptor, agonist/antagonist mode; assay type: cell-based; conditions: antagonist mode
T2 construct: expressed in transfected cells; host or cells: Ca2+ optimized hematopoietic cell lines (rat)
T2 sequence (P30559 1-389): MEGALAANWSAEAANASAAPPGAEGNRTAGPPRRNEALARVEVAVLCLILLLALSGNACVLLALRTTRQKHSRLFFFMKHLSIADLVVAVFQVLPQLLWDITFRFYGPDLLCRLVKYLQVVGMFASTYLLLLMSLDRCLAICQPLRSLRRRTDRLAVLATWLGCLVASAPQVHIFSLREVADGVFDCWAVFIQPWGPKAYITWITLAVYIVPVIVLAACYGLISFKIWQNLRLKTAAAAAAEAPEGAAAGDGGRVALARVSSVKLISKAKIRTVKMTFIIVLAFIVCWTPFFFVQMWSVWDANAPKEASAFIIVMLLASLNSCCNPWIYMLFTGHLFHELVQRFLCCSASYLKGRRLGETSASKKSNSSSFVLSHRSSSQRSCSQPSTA
Experimental: Biological and Pharmacological Methods 1. Ca^2+ Flux Assays for the GPCRs Oxytocin Receptor (OT Receptor), Thyrotropin-Releasing Hormone Receptor (TRH Receptor) and Bombesin Receptor Subtype 3 (BB3 Receptor)
Assays were performed on a FLIPR^TETRA fluorometric imaging plate reader (Molecular Devices) with ScreenWorks Version 2 (Molecular Devices) as device operating and data analysis software.
Dose dependent agonist and antagonist activities were determined. Percentage activation and percentage inhibition values were determined.
Percentage activation was determined upon initial addition of the sample compounds followed by 10 minutes' incubation at 25° C. Following compound incubation, reference agonists were added at EC80 to determine percentage inhibition.
Reference agonists were purchased from reputable commercial vendors and prepared according to each ligand's specifications. All handling of ligands were done to ensure proper control throughout the experiments.
Example compounds were weighed on a Microbalance (Mettler MX5) and dissolved in 100% DMSO to a final concentration of 2.5 mM and subsequently diluted into the assay buffer.
The assay buffer was a supplemented HBSS (Hank's Balanced Salt Solution). HBSS was supplemented with 20 mM HEPES (4-(2-hydroxyethyl)-piperazin-1-ethansulfonic acid) and 2.5 mM Probenecid (Sigma P8761).
GPCR assays were performed using Ca^2+ optimized hematopoietic cell lines (rat) with cultures never exceeding 90% confluency. Cells were harvested and seeded (from cultures at less than 90% confluency) at 50000 cells/well for a 96-well plate (12500 cells/well for 384). After seeding, the assay plates were incubated for 45 minutes at room temperature. After room temperature incubation, the assay plates were incubated at 37° C. 5% CO2 for 24 hours prior to assaying.
All GPCR assays were performed using Fluo-8 Ca^2+ dye.
Ca^2+ dye was prepared at 1× dye concentration in GPCR assay buffer. After 24 hours of incubation, cells were washed with GPCR assay buffer, and then Ca^2+-dye (100 μL/well) was added.
The plates were incubated for 90 minutes at 30° C. 5% CO2 prior to FLIPR assay.
Compound plates were prepared to add 50 μL/well during the agonist assay mode. During the FLIPR assay, 50 μL/well from the compound plate was diluted 3-fold into the existing 100 μL/well from the dye loading step. Therefore all compounds were prepared as 3× the final concentration desired in the assay.
After completion of the first single addition assay run, assay plate was removed from the FLIPR Tetra and placed at 25° C. for 7 minutes before antagonist assay.
Using the EC80 values determined during the agonist assay, all pre-incubated sample compound and reference antagonist (if applicable) wells were stimulated at the EC80 of the reference agonist. As reference ligands for these assays their obvious natural ligands oxytocin (OT), thyrotropin-releasing hormone (TRH) and bombesin (6-14) [BN(6-14)] were used.
After the addition of the reference agonist fluorescence was monitored for 180 sec using FLIPR Tetra.
From the FLIPR data, with negative control correction enabled, the maximum statistic for each well was exported and percentage activation relative to Emax control was calculated.

[3] = system: S. pneumoniae DSM 20566 11A11, 3313A6, 704CG4B21, 82BERG72; experiment: Antimicrobial assay, broth microdilution MIC, S. pneumoniae strains; assay type: cell-based; conditions: Streptococcus pneumoniae, DSM20566; strain DSM 20566 (Table 32.7); read-out: MIC S. pneumoniae DSM 20566
Experimental: (§1) The antimicrobial activities of the compounds were determined in 96-well plates (Greiner, polystyrene) by the standard NCCLS broth microdilution method (National Committee for Clinical Laboratory Standards 1993. Methods for dilution antimicrobial susceptibility tests for bacteria that grow aerobically, 3rd ed. Approved standard M7-A6. National Committee for Clinical laboratory standards, Wayne, Pa.) with slight modifications. Inocula of the microorganisms were diluted into Mueller-Hinton II (MH, cation adjusted) broth+0.002% P-80 and compared with a 0.5 McFarland standard to give appr. 10^6 colony forming units (CFU)/mL. Aliquots (50 μl) of inoculate were added to 50 μl of MH broth+0.002% P-80 containing the compounds in serial two-fold dilutions. The following microorganisms were used to determine antibiotic selectivity of the compounds: S. pneumoniae DSM 20566 11A11, 3313A6, 704CG4B21, 82BERG72; S. aureus ATCC 29213, ATCC 25923, DSM 11729, DSM 46320, S. aureus 39. Antimicrobial activities of the compounds were expressed as the minimal inhibitory concentration (MIC) in μg/mL at which no visible growth was observed after 18-20 hours of incubation at 36° C.

[4] = system: S. aureus ATCC 29213, ATCC 25923, DSM 11729, DSM 46320, S. aureus 39; experiment: Antimicrobial assay, broth microdilution MIC, S. aureus strains; assay type: cell-based; conditions: Staphylococcus aureus
Experimental: as §1

T1 sequence (Q15722 whole entry): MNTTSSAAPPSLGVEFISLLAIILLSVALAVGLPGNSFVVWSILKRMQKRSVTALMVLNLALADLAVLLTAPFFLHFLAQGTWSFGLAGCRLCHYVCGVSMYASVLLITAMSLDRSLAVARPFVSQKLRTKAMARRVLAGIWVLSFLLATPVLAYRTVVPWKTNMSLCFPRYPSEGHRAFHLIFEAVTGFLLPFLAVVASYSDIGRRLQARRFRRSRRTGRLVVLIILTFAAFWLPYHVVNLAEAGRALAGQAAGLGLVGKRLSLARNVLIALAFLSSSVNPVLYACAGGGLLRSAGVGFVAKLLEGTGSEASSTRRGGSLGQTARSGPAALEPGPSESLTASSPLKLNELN

IC50 [1]	inhibition at 10 µM [1]	IC50 [2]	inhibition at 10 µM ([2]; 10 μM)	SMILES	further results
		3 µM	58%	CN1CCNC(=O)c2cncc(c2)-c2cccc(c2)OC[C@@H]2C[C@@H](NC(=O)OC(C)(C)C)CN2C(=O)C1 [Ex. 94, tert-butyl N-[(9S,11R)-16-methyl-14,20-dioxo-7-oxa-13,16,19,23-tetraazatetracyclo[19.3.1.1^2,6.0^9,13]hexacosa-1(25),2(26),3,5,21,23-hexaen-11-yl]carbamate]	MIC [3]: > 16 µg/mL; MIC ([4]; strain ATCC 25923, read-out: MIC S. aureus ATCC 25923): 8 µg/mL (≈ 15.7 µM); MIC ([4]; strain ATCC 29213, read-out: MIC S. aureus ATCC 29213): 4 µg/mL (≈ 7.85 µM); MIC ([4]; strain DSM 11729, read-out: MIC S. aureus DSM 11729): 4 µg/mL (≈ 7.85 µM); MIC ([4]; strain DSM 46320, read-out: MIC S. aureus DSM 46320): 8 µg/mL (≈ 15.7 µM); MIC ([4]; strain S. aureus 39, read-out: MIC S. aureus 39): 8 µg/mL (≈ 15.7 µM)
		1.2 µM	60%	CN1CCNC(=O)c2cncc(c2)-c2cccc(c2)OC[C@@H]2C[C@@H](NC(=O)Cc3ccc4ccccc4c3)CN2C(=O)C1 [Ex. 96, N-[(9S,11R)-16-methyl-14,20-dioxo-7-oxa-13,16,19,23-tetraazatetracyclo[19.3.1.1^2,6.0^9,13]hexacosa-1(25),2(26),3,5,21,23-hexaen-11-yl]-2-(2-naphthyl) acetamide]	
		4.6 µM	57%	CC(=O)N[C@@H]1C[C@H]2COc3cccc(c3)-c3cncc(c3)C(=O)NCCN(Cc3cccc(F)c3)CC(=O)N2C1 [Ex. 100, N-[(9S,11R)-16-(3-fluorobenzyl)-14,20-dioxo-7-oxa-13,16,19,23-tetraazatetracyclo[19.3.1.1^2,6.0^9,13]hexacosa-1(25),2(26),3,5,21,23-hexaen-11-yl]acetamide]	
		2.6 µM		CN1CCNC(=O)c2cncc(c2)-c2cccc(c2)OC[C@@H]2C[C@@H](NC(=O)Cc3cccc4ccccc34)CN2C(=O)C1 [Ex. 101, N-[(9S,11R)-16-methyl-14,20-dioxo-7-oxa-13,16,19,23-tetraazatetracyclo[19.3.1.1^2,6.0^9,13]hexacosa-1(25),2(26),3,5,21,23-hexaen-11-yl]-2-(1-naphthyl) acetamide]	Antagonist activity % Inhibition at 10 μM ([2]; 10 μM): 69%
		6.9 µM	77%	CN1CCNC(=O)c2cncc(c2)-c2cccc(c2)OC[C@@H]2C[C@@H](NS(=O)(=O)c3ccccc3)CN2C(=O)C1 [Ex. 103, N-[(9S,11R)-16-methyl-14,20-dioxo-7-oxa-13,16,19,23-tetraazatetracyclo[19.3.1.1^2,6.0^9,13]hexacosa-1(25),2(26),3,5,21,23-hexaen-11-yl]benzenesulfonamide]	
15.4 µM	49%			C[C@@H]1COc2cccc(c2)-c2ccccc2SCCCC[C@H](N)C(=O)N1 [Ex. 116, (13S,16R)-13-amino-16-methyl-18-oxa-8-thia-15-azatricyclo[17.3.1.0^2,7]tricosa-1(23),2,4,6,19,21-hexaen-14-one]	
14.2 µM	47%			C[C@@H]1COc2cccc(c2)-c2ccccc2SCCCC[C@H](NC(=O)CN2CCCC2)C(=O)N1 [Ex. 119, N-[(13S,16R)-16-methyl-14-oxo-18-oxa-8-thia-15-azatricyclo[17.3.1.0^2,7]tricosa-1(23),2,4,6,19,21-hexaen-13-yl]-2-(1-pyrrolidinyl)acetamide]	
40.9 µM	41%			C[C@@H]1COc2ccccc2-c2cncc(c2)SCCCC[C@H](N)C(=O)N1 [Ex. 144, (10R,13S)-13-amino-10-methyl-8-oxa-18-thia-11,21-diazatricyclo[17.3.1.0^2,7]tricosa-1(23),2,4,6,19,21-hexaen-12-one]	

SMILES	IC50 [1]	inhibition at 10 µM [1]	IC50 [2]	inhibition at 10 µM ([2]; 10 μM)	further results
O=C(N[C@@H]1CCNC(=O)c2ccccc2-c2cccc(c2)OC[C@@H]2C[C@H](NC(=O)Oc3ccccc3)CN2C1=O)OCc1ccccc1 [Ex. 14]	39.4 µM	46%			
